Test results reported in patent US10947389B2, “Composition, film, near infrared cut filter, laminate, pattern forming method, solid image pickup element, image display device, infrared sensor, and color filter” (FUJIFILM Corporation, priority 2016, dated 2021).

Tests used:
[1] = Evaluation of solubility in water at 23° C.; type: physicochemical; conditions: stirred for 1 hour
Description: Each of the compounds was added to water at 23° C. under the atmospheric pressure, the components were stirred for 1 hour, and the solubility of the compound in water was obtained. The solubility of the compound was evaluated based on the following criteria.
A: the solubility in water at 23° C. was 0.1 mass % or lower
B: the solubility in water at 23° C. was higher than 0.1 mass % and 1 mass % or lower
C: the solubility in water at 23° C. was higher than 1 mass %

[2] = Evaluation of absorption maximum and absorbance ratio (500 nm/λmax) in solution; type: physicochemical; conditions: for λmax (nm) of Second Near Infrared Absorbing Compound: as listed in Table 58; for Absorbance Ratio (500 nm/λmax) / Absorption Maximum (nm): solvent chloroform
Description: In this specification, “having an absorption maximum in a wavelength range of 650 to 1000 nm” denotes having a maximum absorbance in a wavelength range of 650 to 1000 nm in an absorption spectrum of the near infrared absorbing compound in a solution. Examples of a measurement solvent used for the measurement of the absorption spectra of the near infrared absorbing compound in the solution include chloroform, methanol, dimethyl sulfoxide, ethyl acetate, and tetrahydrofuran. In the case of a compound which is soluble in chloroform, chloroform is used as the measurement solvent. In the case of a compound which is not soluble in chloroform, methanol is used. In addition, In the case of a compound which is not soluble in chloroform and methanol, dimethyl sulfoxide is used.
Each of the compounds was dissolved in a measurement solvent shown in the following tables (concentration: 2.5×10^−6 mol/L) to measure an absorption spectrum (optical path length: 10 mm).
In addition, an absorbance ratio (500 nm/λmax) as a value obtained by dividing an absorbance at a wavelength of 500 nm by an absorbance at an absorption maximum was evaluated based on the following criteria.
A: the absorbance ratio (500 nm/λmax) was 0.04 or lower
B: the absorbance ratio (500 nm/λmax) was higher 0.04 and 0.08 or lower
C: the absorbance ratio (500 nm/λmax) was higher than 0.08

Row | Compound | Solubility [1] | λmax (nm) of Second Near Infrared Absorbing Compound [2] [nm] | Absorbance Ratio (500 nm/λmax) [2] | Absorption Maximum (nm) [2] [nm]
1 | Cc1ccc2c(c1)OB(n1c(-c3cccc(OCC(CCC(C)CC(C)(C)C)C(C)CC(C)(C)C)c3)c3/c(=C(\C#N)c4nc5cc(C)ccc5o4)n(B4Oc5ccc(C)cc5O4)c(-c4cccc(OCC(CCC(C)CC(C)(C)C)C(C)CC(C)(C)C)c4)c3/c1=C(\C#N)c1nc3cc(C)ccc3o1)O2 (stereo not drawn) [II-269] | A (the solubility in water at 23 °C was 0.1 mass % or lower) | 685 | A (the absorbance ratio (500 nm/λmax) was 0.04 or lower) | 685
2 | Cc1ccc2oc(C(C#N)=c3c4c(-c5cccc(OCC(CCCCCCCC(C)C)CCCCCC(C)C)c5)n(B5Oc6cc7ccccc7cc6O5)c(=C(C#N)c5nc6cc(C)ccc6o5)c4c(-c4cccc(OCC(CCCCCCCC(C)C)CCCCCC(C)C)c4)n3B3Oc4cc5ccccc5cc4O3)nc2c1 (stereo not drawn) [II-274] | A (the solubility in water at 23 °C was 0.1 mass % or lower) | 685 | A (the absorbance ratio (500 nm/λmax) was 0.04 or lower) | 685
3 | Cc1ccc2oc(/C(C#N)=c3/c4c(-c5cccc(OCC(CCC(C)CC(C)(C)C)C(C)CC(C)(C)C)c5)n(B5Oc6cc7ccccc7cc6O5)/c(=C(/C#N)c5nc6cc(C)ccc6o5)c4c(-c4cccc(OCC(CCC(C)CC(C)(C)C)C(C)CC(C)(C)C)c4)n3B3Oc4cc5ccccc5cc4O3)nc2c1 (stereo not drawn) [II-275] | A (the solubility in water at 23 °C was 0.1 mass % or lower) | 685 | A (the absorbance ratio (500 nm/λmax) was 0.04 or lower) | 685
4 | CC(C)CCCCCCCC(CCCCCC(C)C)COc1ccc(-c2c3c(=C(C#N)c4nc5cc(Cl)ccc5o4)n(B(c4ccccc4)c4ccccc4)c(-c4ccc(OCC(CCCCCCCC(C)C)CCCCCC(C)C)cc4)c3c(=C(C#N)c3nc4cc(Cl)ccc4o3)n2B(c2ccccc2)c2ccccc2)cc1 (stereo not drawn) [II-325] | A (the solubility in water at 23 °C was 0.1 mass % or lower) |  | A (the absorbance ratio (500 nm/λmax) was 0.04 or lower) | 738
5 | CC(CCC(COc1cccc(-c2c3/c(=C(\C#N)c4nc5cc(Cl)ccc5o4)n(B4Oc5ccccc5O4)c(-c4cccc(OCC(CCC(C)CC(C)(C)C)C(C)CC(C)(C)C)c4)c3/c(=C(\C#N)c3nc4cc(Cl)ccc4o3)n2B2Oc3ccccc3O2)c1)C(C)CC(C)(C)C)CC(C)(C)C (stereo not drawn) [II-408] | A (the solubility in water at 23 °C was 0.1 mass % or lower) | 680 | A (the absorbance ratio (500 nm/λmax) was 0.04 or lower) | 680
6 | CC(C)CCCCCCCC(CCCCCC(C)C)COc1ccc(-c2c3c(=C(C#N)c4nc5ccccc5s4)n(B(c4ccccc4)c4ccccc4)c(-c4ccc(OCC(CCCCCCCC(C)C)CCCCCC(C)C)cc4)c3c(=C(C#N)c3nc4ccccc4s3)n2B(c2ccccc2)c2ccccc2)cc1 (stereo not drawn) [II-507] | A (the solubility in water at 23 °C was 0.1 mass % or lower) |  | A (the absorbance ratio (500 nm/λmax) was 0.04 or lower) | 780
7 | CC(CCC(COc1ccc(-c2c3c(=C(C#N)c4nc5ccccc5s4)n(B(c4ccccc4)c4ccccc4)c(-c4ccc(OCC(CCC(C)CC(C)(C)C)C(C)CC(C)(C)C)cc4)c3c(=C(C#N)c3nc4ccccc4s3)n2B(c2ccccc2)c2ccccc2)cc1)C(C)CC(C)(C)C)CC(C)(C)C (stereo not drawn) [II-508] | A (the solubility in water at 23 °C was 0.1 mass % or lower) |  | A (the absorbance ratio (500 nm/λmax) was 0.04 or lower) | 780
8 | N#CC(c1nc2ccccc2s1)=c1c2c(-c3ccc(O)cc3)n(B(c3ccccc3)c3ccccc3)c(=C(C#N)c3nc4ccccc4s3)c2c(-c2ccc(O)cc2)n1B(c1ccccc1)c1ccccc1 [II-524] | A (the solubility in water at 23 °C was 0.1 mass % or lower) |  | A (the absorbance ratio (500 nm/λmax) was 0.04 or lower) | 779
9 | CC(C)CCCCCCCC(CCCCCC(C)C)COc1cccc(-c2c3c(=C(C#N)c4nc5ccccc5s4)n(B(c4ccccc4)c4ccccc4)c(-c4cccc(OCC(CCCCCCCC(C)C)CCCCCC(C)C)c4)c3c(=C(C#N)c3nc4ccccc4s3)n2B(c2ccccc2)c2ccccc2)c1 (stereo not drawn) [II-525] | A (the solubility in water at 23 °C was 0.1 mass % or lower) |  | A (the absorbance ratio (500 nm/λmax) was 0.04 or lower) | 783
10 | Cc1ccccc1B(c1ccccc1C)n1c(-c2ccc(OCC(CCCCCCCC(C)C)CCCCCC(C)C)cc2)c2c(=C(C#N)c3nc4ccccc4s3)n(B(c3ccccc3C)c3ccccc3C)c(-c3ccc(OCC(CCCCCCCC(C)C)CCCCCC(C)C)cc3)c2c1=C(C#N)c1nc2ccccc2s1 (stereo not drawn) [II-541] | A (the solubility in water at 23 °C was 0.1 mass % or lower) |  | A (the absorbance ratio (500 nm/λmax) was 0.04 or lower) | 772
11 | CC(C)CCCCCCCC(CCCCCC(C)C)COc1cccc(-c2c3c(=C(C#N)c4nc5ccccc5s4)n(B4Oc5ccccc5O4)c(-c4cccc(OCC(CCCCCCCC(C)C)CCCCCC(C)C)c4)c3c(=C(C#N)c3nc4ccccc4s3)n2B2Oc3ccccc3O2)c1 (stereo not drawn) [II-589] | A (the solubility in water at 23 °C was 0.1 mass % or lower) | 719 | A (the absorbance ratio (500 nm/λmax) was 0.04 or lower) | 719
12 | CC(CCC(COc1cccc(-c2c3/c(=C(\C#N)c4nc5ccccc5s4)n(B4Oc5ccccc5O4)c(-c4cccc(OCC(CCC(C)CC(C)(C)C)C(C)CC(C)(C)C)c4)c3/c(=C(\C#N)c3nc4ccccc4s3)n2B2Oc3ccccc3O2)c1)C(C)CC(C)(C)C)CC(C)(C)C (stereo not drawn) [II-590] | A (the solubility in water at 23 °C was 0.1 mass % or lower) | 719 | A (the absorbance ratio (500 nm/λmax) was 0.04 or lower) | 719
13 | COc1ccc2sc(C(C#N)=c3c4c(-c5ccc(OCC(CCCCCCCC(C)C)CCCCCC(C)C)cc5)n(B(c5ccccc5)c5ccccc5)c(=C(C#N)c5nc6cc(OC)ccc6s5)c4c(-c4ccc(OCC(CCCCCCCC(C)C)CCCCCC(C)C)cc4)n3B(c3ccccc3)c3ccccc3)nc2c1 (stereo not drawn) [II-673] | A (the solubility in water at 23 °C was 0.1 mass % or lower) |  | A (the absorbance ratio (500 nm/λmax) was 0.04 or lower) | 794
14 | CC(C)CCCCCCCC(CCCCCC(C)C)COc1ccc(-c2c3c(=C(C#N)c4nc5ccccc5n4C)n(B(c4ccccc4)c4ccccc4)c(-c4ccc(OCC(CCCCCCCC(C)C)CCCCCC(C)C)cc4)c3c(=C(C#N)c3nc4ccccc4n3C)n2B(c2ccccc2)c2ccccc2)cc1 (stereo not drawn) [II-697] | A (the solubility in water at 23 °C was 0.1 mass % or lower) |  | A (the absorbance ratio (500 nm/λmax) was 0.04 or lower) | 743
15 | CC(C)CCCCCCCC(CCCCCC(C)C)COc1cccc(-c2c3c(=C(C#N)c4nc5c(ccc6ccccc65)o4)n(B(c4ccccc4)c4ccccc4)c(-c4cccc(OCC(CCCCCCCC(C)C)CCCCCC(C)C)c4)c3c(=C(C#N)c3nc4c(ccc5ccccc54)o3)n2B(c2ccccc2)c2ccccc2)c1 (stereo not drawn) [II-715] | A (the solubility in water at 23 °C was 0.1 mass % or lower) |  | A (the absorbance ratio (500 nm/λmax) was 0.04 or lower) | 769
16 | CC(C)CCCCCCCC(CCCCCC(C)C)COc1ccc(-c2c3c(=C(C#N)c4cnc5ccccc5n4)n(B(c4ccccc4)c4ccccc4)c(-c4ccc(OCC(CCCCCCCC(C)C)CCCCCC(C)C)cc4)c3c(=C(C#N)c3cnc4ccccc4n3)n2B(c2ccccc2)c2ccccc2)cc1 (stereo not drawn) [III-9] | A (the solubility in water at 23 °C was 0.1 mass % or lower) |  | A (the absorbance ratio (500 nm/λmax) was 0.04 or lower) | 863
17 | CC(CCC(COc1cccc(-c2c3/c(=C(\C#N)c4cnc5ccccc5n4)n(B(c4ccccc4)c4ccccc4)c(-c4cccc(OCC(CCC(C)CC(C)(C)C)C(C)CC(C)(C)C)c4)c3/c(=C(\C#N)c3cnc4ccccc4n3)n2B(c2ccccc2)c2ccccc2)c1)C(C)CC(C)(C)C)CC(C)(C)C (stereo not drawn) [III-28] | A (the solubility in water at 23 °C was 0.1 mass % or lower) |  | A (the absorbance ratio (500 nm/λmax) was 0.04 or lower) | 863
18 | CCCCCCCCCCC(CCCCCCCC)COc1cccc(-c2c3c(=C(C#N)c4cnc5ccccc5n4)n(B(c4ccccc4)c4ccccc4)c(-c4cccc(OCC(CCCCCCCC)CCCCCCCCCC)c4)c3c(=C(C#N)c3cnc4ccccc4n3)n2B(c2ccccc2)c2ccccc2)c1 (stereo not drawn) [III-29] | A (the solubility in water at 23 °C was 0.1 mass % or lower) |  | A (the absorbance ratio (500 nm/λmax) was 0.04 or lower) | 863
